The text below walks through data of patent US8883410B2, “Method for determining the stability of organic methyleneamines in the presence of semicarbazide-sensitive amine oxidase” (Sanofi, priority 2007, dated 2014).

The series has as its target T1, human SSAO T2 (Met211-Asn763), untagged (Homo sapiens, UniProt Q16853).
T1 construct: T2 (Met211-Asn763) Representing the Putative Catalytic Domain; expressed in transfected cells; cell lysate
T1 sequence (Q16853 211-763): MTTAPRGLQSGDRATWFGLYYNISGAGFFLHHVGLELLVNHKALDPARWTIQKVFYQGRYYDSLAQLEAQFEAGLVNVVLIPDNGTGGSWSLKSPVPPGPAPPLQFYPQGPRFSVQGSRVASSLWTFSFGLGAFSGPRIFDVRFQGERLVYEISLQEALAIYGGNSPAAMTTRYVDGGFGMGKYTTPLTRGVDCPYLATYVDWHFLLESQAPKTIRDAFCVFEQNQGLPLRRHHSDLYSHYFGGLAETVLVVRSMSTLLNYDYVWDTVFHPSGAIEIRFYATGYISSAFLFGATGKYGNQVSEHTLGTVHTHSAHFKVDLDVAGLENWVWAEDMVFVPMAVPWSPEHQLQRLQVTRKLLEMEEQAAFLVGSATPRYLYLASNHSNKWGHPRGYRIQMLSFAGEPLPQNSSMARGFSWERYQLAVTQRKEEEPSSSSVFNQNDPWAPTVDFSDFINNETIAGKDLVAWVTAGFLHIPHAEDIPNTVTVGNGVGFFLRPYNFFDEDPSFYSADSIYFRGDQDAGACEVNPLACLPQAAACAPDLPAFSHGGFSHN
Briefly: Benzylamine stability in lysate of cells expressing T2 SSAO (untagged), LC/MS/MS. Format: in vitro ADME. The following applies: tag None. Here is the method: 4) T2 (Met211-Asn763) Representing the Putative Catalytic Domain.
The expression constructs were prepared by cloning these PCR products into the pCDNA5-FRT-To-DEST vector (Invitrogen, Gateway System™). The forward and reverse DNA sequence of each construct was confirmed including expressed sequences and at least 100 base pairs either side of this. Stable cell lines for Flp-In CHO, Flp-In CHO T-Rex, and Flp-In HEK 293 (Invitrogen, Flp-In system™) were generated using these 6 constructs according to manufacturer's instructions. Cells were co-transfected with the regulatory vector, pOG44, and each of the pCDNA5-FRT-To-DEST constructs using Lipfectamine (Invitrogen) according to manufacturer's instructions. Thus, 18 cell lines were generated: CHO Flp-In full-length SSAO; CHO Flp-In full-length SSAO with C-terminal 6×HIS tag; CHO Flp-In T1 SSAO; CHO Flp-In T1 SSAO with C-terminal 6×HIS tag; CHO Flp-In T2 SSAO; CHO Flp-In T2 SSAO with C-terminal 6×HIS tag; CHO T-Rex Flp-In full-length SSAO; CHO T-Rex Flp-In full-length SSAO with C-terminal 6×HIS tag; CHO T-Rex Flp-In T1 SSAO; CHO T-Rex Flp-In T1 SSAO with C-terminal 6×HIS tag; CHO T-Rex Flp-In T2 SSAO; CHO Flp-In T2 SSAO with C-terminal 6×HIS tag; HEK 293 Flp-In full-length SSAO; HEK 293 Flp-In full-length SSAO with C-terminal 6×HIS tag; HEK 293 Flp-In T1 SSAO; HEK 293 Flp-In T1 SSAO with C-terminal 6×HIS tag; HEK 293 Flp-In T2 SSAO; HEK 293 Flp-In T2 SSAO with C-terminal 6×HIS tag.
Adherent CHO cells were cultured at 37° C., 5% CO2 in media containing Ham's F12, 10% fetal bovine serum, 2 mM L-glutamine, 1% Penicillin/Streptomycin, 300 μM hygromycin B. Adherent HEK 293 cells were cultured at 37° C., 5% CO2 in D-MEM (high glucose), 10% fetal bovine serum, 2 mM L-glutamine, and 200 μM hygromycin B. Stable transformants were identified by loss of zeocin resistance. Once the cells were 80% confluent, SSAO expression was induced by the addition of Tetracycline to 1 μg/mL. Following 18 hours, the cells were harvested using a trypsin treatment of 3 minutes, at room temperature. Cells were washed 3 times in phosphate buffered saline before flash freezing in liquid nitrogen.
For the preparation of cell lysate for activity testing, frozen cell pellets were resuspended in lysate buffer containing 10 mM Tris-HCl (pH 7.2), 150 mM NaCl, 1.5 mM MgCl2, 1% v/v NP-40 and incubated for 15 minutes on ice. Lysate was cleared by centrifugation 800×g for 10 minutes, 4° C. and stored in aliquots at −80° C. until use. Proteins were determined using Pierce Coomassie Protein Reagent, according to manufacturer's instructions.
For each assay run, 1 mL of cell lysate (1.5 mg/mL protein) was mixed with benzylamine to 2000 ng/mL final concentration. At each corresponding time point, […] the incubation mixture was transferred to a microcentrifuge tube (1.7 mL) and mixed with 50 μL of acetonitrile. The tubes were vortex mixed briefly to ensure complete mixing and then centrifuged at 10,000×g for 5 minutes. The supernatant was removed and 50 μL was transferred to an autosampler vial and mixed with 50 μL of water before LC/MS/MS analysis. Benzylamine remaining in the lysate was analyzed with LC/MS/MS method.
LC/MS/MS analysis was performed with a PE Sciex API 3000 mass spectrometer under the following conditions listed below and in Tables 1 and 2: […]

Consider `NCc1ccccc1` [Benzylamine], for which the “Benzylamine Remaining (%)” value is reported as 100% (CHO Flp-In T-Rex lysate, 0 min); 97% (CHO Flp-In T-Rex lysate, 10 min); 83% (CHO Flp-In T-Rex lysate, 2 h); 100% (CHO Flp-In lysate, 0 min); 105% (CHO Flp-In lysate, 10 min); 98% (CHO Flp-In lysate, 2 h). Further, the “Benzylamine Remaining (%)” value (HEK293 lysate, 0 min) stood at 100%; the “Benzylamine Remaining (%)” value (HEK293 lysate, 10 min) was found to be 113%; the “Benzylamine Remaining (%)” value (HEK293 lysate, 2 h) was determined as 101%.
